# In article PMC9448382, “Fluorosulfate-containing pyrazole heterocycles as selective BuChE inhibitors: structure-activity relationship and biological evaluation for the treatment of Alzheimer’s disease” (Journal of Enzyme Inhibition and Medicinal Chemistry, 2022):
# How the values were obtained:
# AChE from electric eel = biological target: T1, AChE from electric eel (Electrophorus electricus, UniProt O42275); assay: EeAChE inhibition assay (Ellman's method); assay type: biochemical; conditions: read-out: AChE % inhibition at 20 µM, 20 µM, na = no inhibitory activity at 20 µM
# T1 construct: AChE from electric eel (C3389-500UN; Sigma); purchased Sigma C3389-500UN
# T1 sequence (O42275 24-633): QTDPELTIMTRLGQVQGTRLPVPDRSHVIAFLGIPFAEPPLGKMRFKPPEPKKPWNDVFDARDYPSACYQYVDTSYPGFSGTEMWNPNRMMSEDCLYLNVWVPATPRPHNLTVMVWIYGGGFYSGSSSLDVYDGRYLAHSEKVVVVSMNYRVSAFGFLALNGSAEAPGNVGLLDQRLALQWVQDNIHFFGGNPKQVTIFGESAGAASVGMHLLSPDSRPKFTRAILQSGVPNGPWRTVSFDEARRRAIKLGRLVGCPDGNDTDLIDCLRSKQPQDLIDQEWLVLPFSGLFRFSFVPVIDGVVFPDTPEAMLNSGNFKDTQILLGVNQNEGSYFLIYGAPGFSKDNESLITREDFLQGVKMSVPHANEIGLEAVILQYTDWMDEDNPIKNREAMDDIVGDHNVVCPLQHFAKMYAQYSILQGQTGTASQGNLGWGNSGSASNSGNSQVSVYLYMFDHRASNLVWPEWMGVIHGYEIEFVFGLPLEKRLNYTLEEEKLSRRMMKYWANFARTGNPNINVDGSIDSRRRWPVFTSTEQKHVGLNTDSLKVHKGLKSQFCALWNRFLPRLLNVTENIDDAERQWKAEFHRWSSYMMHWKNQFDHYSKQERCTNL
# Description: According to Ellman's method, assays were carried out on AChE from electric eel (C3389-500UN; Sigma) and BuChE from horse serum (C4290-1KU; Sigma). On a final volume of 500 μL, the experiment was carried out in 48-well plates. EeAChE or eqBuChE, 0.036 U/mL, and 0.1 M pH 8 phosphate buffer were added to each well. At 37 °C, they were pre-incubated for 20 min at various chemical concentrations. […] Along with the enzymatic breakdown of ACh or BuCh, the DTNB creates the yellow anion 5-thio-2-nitrobenzoic acid. In a Biotek Synergy HTX Multi-Mode reader, changes in absorbance were detected at 410 nm. Inhibition curves were used to calculate the IC50 values (log inhibitor concentration vs percent of inhibition). The same conditions were used in a control experiment without the inhibitor, and the blank comprised buffer, DMSO, DTNB, and substrate.
# The IC50 values were calculated by SPSS 17.0.
# [1] = test system: human hepatoblastoma cells HepG2; assay: Cytotoxicity MTT assay, HepG2 cells; conditions: 50 μM, 24 h
# Description: (§1) Human hepatoblastoma cells HepG2 and human normal liver cells LO2 cells were cultured at 37 °C in DMEM containing 10% foetal bovine serum, 100 U/mL penicillin, and […] streptomycin in a humidified incubator with 5% CO2. The methyl thiazolyl tetrazolium (MTT) assay was used to assess cell cytotoxicity. In a 96-well plate, HepG2 cells and LO2 cells were injected at 1 × 10^4 cells per well. The cells were treated with various substances that were diluted in DMEM for 24 h after being cultivated for 24 h. The cells were then treated for 4 h with 20 µL 0.5 mg/mL MTT reagent. The cell culture was withdrawn after 4 h, and 150 µL DMSO were added to dissolve the formazan. […] Three independent tests were used to calculate cell viability.
# (§2) Blank: cultured with fresh medium only.
# male ICR mice [2] = conditions: Day 3 to Day 14
# Description: The National Institutes of Health Guide for the Care and Use of Laboratory Animals was followed for all experiments. The Animal Care and Use Committee of Anhui Medical University adopted the Measures for the Care and Treatment of Laboratory Animals. In Anhui Medical University's animal centre, male ICR mice were employed (Hefei). […] Throughout all of the experiments, the room's ambient temperature and relative humidity (50%) remained constant. […] 8‒10 animals were used in each study group. The experimental time was from 08: 00 to 14: 00, and the mice were sacrificed by cervical dislocation shortly after the experiment ended. […] Aβ1–42 aggregation was induced by dissolving the Aβ1–42 peptide in DMSO as a stock solution of 5 mM and incubating it in saline at a final concentration of 2 mg/mL for 24 h at 37 °C.
# [3] = biological target: T2, recombinant human AChE (hAChE) (Homo sapiens, UniProt P22303); assay: hAChE inhibition assay; assay type: biochemical
# T2 construct: purchased Sigma C1682
# T2 sequence (P22303 32-614): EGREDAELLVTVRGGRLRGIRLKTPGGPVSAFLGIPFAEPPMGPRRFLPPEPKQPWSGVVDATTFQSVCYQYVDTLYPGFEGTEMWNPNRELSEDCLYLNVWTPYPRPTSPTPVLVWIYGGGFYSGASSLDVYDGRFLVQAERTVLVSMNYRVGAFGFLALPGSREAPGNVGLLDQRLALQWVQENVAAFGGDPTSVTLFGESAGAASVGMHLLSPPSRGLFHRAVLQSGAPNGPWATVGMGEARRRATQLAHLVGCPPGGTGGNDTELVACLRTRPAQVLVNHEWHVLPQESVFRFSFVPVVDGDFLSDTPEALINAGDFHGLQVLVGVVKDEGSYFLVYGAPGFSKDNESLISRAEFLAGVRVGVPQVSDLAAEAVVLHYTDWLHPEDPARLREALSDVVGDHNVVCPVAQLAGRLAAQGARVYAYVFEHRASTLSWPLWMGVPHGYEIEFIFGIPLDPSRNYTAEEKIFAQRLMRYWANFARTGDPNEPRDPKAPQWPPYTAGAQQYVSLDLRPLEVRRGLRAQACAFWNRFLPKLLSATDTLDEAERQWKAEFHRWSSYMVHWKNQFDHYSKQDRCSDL
# Description: With 0.1 M pH 8 PBS, a DTNB solution (5 μM) was produced. Dissolve the test compound in DMSO to prepare a concentration of 2 × 10^−1 M stock solution. The solution was diluted in ethanol to five concentrations of 200, 100, 10, 1 and 0.1 μM, respectively. Measurement was carried out with 96-well plates, add 40 μL buffer, 10 μL test compound at a series of concentrations, and 10 μL AChE/BuChE in sequence. The mixture was then incubated at 37 °C for 10 min. Then add 20 μL DTNB, incubation at 37 °C for 10 min. […] For the blank value, 10 μL of ethanol was used instead of the inhibitor solution. The percentage of enzyme activity and the logarithm of compound concentration were used to express the inhibitory activity of compounds. IC50 was calculated by SPSS17.0.
# male ICR mice [4] = assay: In vivo hepatotoxicity evaluation; set-up: species or system mouse
# Description: . Mice were fasted for 24 h. Intragastrically, the combination was given at a dose of 30 mg/kg body weight with the same quantity of vehicle (po). […] A biochemical analyser was used to process the data (Hitachi 7020, Japan). Mice were slaughtered and livers were obtained for immunohistochemical morphological evaluation after the last sample of postglobular blood. We isolated two 3-mm sections of each liver from the hilum to the edge of the left lateral lobe using an ultra-thin semi-automatic microtome (LeicaRM2245, Germany), immediately placed them in 10% buffered formaldehyde, fixed them for 2 days, and embedded them in paraffin blocks using a paraffin-embedding station (LeicaEG1150H, Germany). Subsequently, five […] sections were prepared from these paraffin sections, deparaffinized, stained with haematoxylin and eosin (HE) or using the periodic acid-Schiff glycogen staining method.
# [5] = test system: human normal liver cells LO2; assay: Cytotoxicity MTT assay, L02 cells; conditions: 50 μM, 24 h
# Description: as §1, §2
smiles,measurement,setting,value
O=S(=O)(F)Oc1cc(-c2ccccc2)nn1-c1ccc(Cl)cc1 [Compound K3],inhibition at 20 µM,AChE from electric eel,26.3 ± 1.4%
same,cell survival rate,[1],87.9%
same,effect on body weight during administration,male ICR mice [2]; 10 mg/kg po,no effect on body weight increase
same,effect on Aβ1–42-induced cognitive dysfunction (MWM),"male ICR mice [2]; Aβ1–42 10 µg icv, K3 10 mg/kg po, donepezil 15 mg/kg po",significantly improved
same,inhibition at 20 µM,[3],31.6 ± 5.74%
same,serum ALT and AST levels vs vehicle group,"male ICR mice [4]; 30 mg/kg po, 8, 22 and 36 h after single dosing",No significant difference
same,liver histomorphology,"male ICR mice [4]; 30 mg/kg, 36 h after administration",no core necrosis or evident steatosis
same,cell survival rate,[5],94.4%
